According to ChEMBL document CHEMBL2331190, “Synthesis of 1,4-bis(indolin-1-ylmethyl)benzene derivatives and their structure-activity relationships for the interaction of human carbonic anhydrase isoforms I and II” (Bioorg Med Chem, 2013):

Experiments:
[1] = molecular target: Carbonic anhydrase 2 (Homo sapiens, UniProt P00918); assay: Inhibition of human carbonic anhydrase 2 using 4-nitrophenylacetate as substrate after 3 mins by spectrophotometric analysis
[2] = molecular target: Carbonic anhydrase 1 (Homo sapiens, UniProt P00915); assay: Inhibition of human carbonic anhydrase 1 using 4-nitrophenylacetate as substrate after 3 mins by spectrophotometric analysis
Sequence of Carbonic anhydrase 1 (P00915 whole entry): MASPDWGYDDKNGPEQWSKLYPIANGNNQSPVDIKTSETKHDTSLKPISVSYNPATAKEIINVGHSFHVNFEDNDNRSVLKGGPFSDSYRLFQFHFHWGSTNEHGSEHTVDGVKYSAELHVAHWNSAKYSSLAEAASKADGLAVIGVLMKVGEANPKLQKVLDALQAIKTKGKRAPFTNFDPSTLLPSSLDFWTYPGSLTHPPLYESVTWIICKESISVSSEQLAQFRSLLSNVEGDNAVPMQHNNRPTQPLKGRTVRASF

Row | Ki [1] [µM] | Ki [2] [µM] | Structure (SMILES)
1 | 0.17 | 42.6 | c1ccc2c(c1)c1c(n2Cc2ccc(Cn3c4c(c5ccccc53)CCC4)cc2)CCC1
2 | 0.25 | 39.3 | c1ccc2c(c1)c1c(n2Cc2ccc(Cn3c4c(c5ccccc53)CCCC4)cc2)CCCC1
3 | 0.29 | 41.7 | c1ccc2c(c1)c1c(n2Cc2ccc(Cn3c4c(c5ccccc53)CCCCC4)cc2)CCCCC1
